# Reference: patent publication US10604535B2, “Compounds, compositions and methods” (Denali Therapeutics Inc., priority 2016, dated 2020)
# Target: GST-hRIPK1 (8-327) (Homo sapiens (Human), UniProt Q13546)
# Experiment: Fluorescent Polarization Binding (FP Binding) assay
# Chain of GST-hRIPK1 (8-327) (Q13546 8-327): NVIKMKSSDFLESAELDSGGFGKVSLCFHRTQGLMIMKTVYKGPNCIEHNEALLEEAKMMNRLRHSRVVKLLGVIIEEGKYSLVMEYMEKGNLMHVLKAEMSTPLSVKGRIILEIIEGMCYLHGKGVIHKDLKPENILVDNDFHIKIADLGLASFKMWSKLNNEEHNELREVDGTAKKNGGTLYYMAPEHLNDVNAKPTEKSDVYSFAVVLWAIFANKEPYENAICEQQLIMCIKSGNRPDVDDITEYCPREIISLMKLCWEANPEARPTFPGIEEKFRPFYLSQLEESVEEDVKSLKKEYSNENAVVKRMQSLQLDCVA
row,SMILES,IC50
1,"CN1C(=O)[C@H](NC(=O)c2cc(Oc3ccccc3F)ccn2)[C@@H]2C[C@@H]2c2cccnc21 [Example 100B, 4-(2-fluorophenoxy)-N-((1aR,2R,8bS)-4-methyl-3-oxo-1,1a,2,3,4,8b-hexahydrocyclopropa[d]pyrido[2,3-b]azepin-2-yl)picolinamide]",0.1 to 1000 nM
2,"Cc1cnn2c1N(C)C(=O)[C@@H](NC(=O)c1nnc(Cc3ccccc3)[nH]1)CC2 [Example 131A, (S)-5-Benzyl-N-(3,4-dimethyl-5-oxo-5,6,7,8-tetrahydro-4H-pyrazolo[1,5-a][1,3]diazepin-6-yl)-4H-1,2,4-triazole-3-carboxamide]",0.1 to 1000 nM
3,"Cc1cc2n(n1)CC[C@H](NC(=O)c1nnc(Cc3ccccc3)[nH]1)C(=O)N2C [Example 129A, (S)-5-Benzyl-N-(2,4-dimethyl-5-oxo-5,6,7,8-tetrahydro-4H-pyrazolo[1,5-a][1,3]diazepin-6-yl)-4H-1,2,4-triazole-3-carboxamide]",0.1 to 1000 nM
4,"CN1C(=O)[C@H](NC(=O)c2nn(Cc3cccc(C#N)c3)cc2F)CCc2cccnc21 [Example 152A, (R)-1-(3-cyanobenzyl)-4-fluoro-N-(9-methyl-8-oxo-6,7,8,9-tetrahydro-5H-pyrido[2,3-b]azepin-7-yl)-1H-pyrazole-3-carboxamide]",> 3000 nM
5,"CN1C(=O)[C@H](NC(=O)c2nnc(Cc3ccccc3)o2)[C@@H]2C[C@@H]2c2nccnc21 [Example 177B, 5-benzyl-N-((7R,7aR,8aS)-5-methyl-6-oxo-5,6,7,7a,8,8a-hexahydrocyclopropa[d]pyrazino[2,3-b]azepin-7-yl)-1,3,4-oxadiazole-2-carboxamide]",> 3000 nM
6,"CN1C(=O)[C@H](NC(=O)c2nnc(Cc3ccccc3)o2)C2(CC2)Oc2cccnc21 [Example 160B, (R)-5-benzyl-N-(5′-methyl-4′-oxo-4′,5′-dihydro-3′H-spiro[cyclopropane-1,2′-pyrido[3,2-b][1,4]oxazepin]-3′-yl)-1,3,4-oxadiazole-2-carboxamide]",> 3000 nM
7,"CN1C(=O)[C@@H](NC(=O)c2nnc(Cc3ccccc3)o2)CCc2nccnc21 [Example 190, (S)-5-benzyl-N-(5-methyl-6-oxo-6,7,8,9-tetrahydro-5H-pyrazino[2,3-b]azepin-7-yl)-1,3,4-oxadiazole-2-carboxamide]",0.1 to 1000 nM
8,"CN1C(=O)[C@@H](NC(=O)[C@@H]2C[C@H]2Cc2ccccc2)COc2ccccc21 (single isomer, unassigned) [Example 50A]",0.1 to 1000 nM
9,"C[C@H]1Oc2ncccc2N(C)C(=O)[C@H]1NC(=O)c1nnc(Cc2ccccc2)o1 [Example 193, 5-benzyl-N-((3S,4R)-1,4-dimethyl-2-oxo-1,2,3,4-tetrahydropyrido[2,3-b][1,4]oxazepin-3-yl)-1,3,4-oxadiazole-2-carboxamide]",0.1 to 1000 nM
10,"CN1C(=O)[C@H](NC(=O)c2nnc(Cc3ccccc3)[nH]2)[C@@H]2C[C@@H]2c2nccnc21 [Example 119A, 5-benzyl-N-((7R,7aR,8aS)-5-methyl-6-oxo-5,6,7,7a,8,8a-hexahydro-cyclopropa[d]pyrazino[2,3-b]azepin-7-yl)-4H-1,2,4-triazole-3-carboxamide]",> 3000 nM
11,"CN1C(=O)[C@H](NC(=O)c2nnc(Cc3ccccc3)[nH]2)CCc2c1cnn2C [Example 101A, (R)-5-benzyl-N-(1,4-dimethyl-5-oxo-1,4,5,6,7,8-hexahydropyrazolo[4,3-b]azepin-6-yl)-4H-1,2,4-triazole-3-carboxamide]",> 3000 nM
12,"CN1C(=O)[C@H](NC(=O)c2nn(Cc3ccccc3F)cc2F)[C@@H]2C[C@@H]2c2nccnc21 [Example 179B, 4-fluoro-1-(2-fluorobenzyl)-N-((7R,7aR,8aS)-5-methyl-6-oxo-5,6,7,7a,8,8a-hexahydrocyclopropa[d]pyrazino[2,3-b]azepin-7-yl)-1H-pyrazole-3-carboxamide]",> 3000 nM
13,"CN1C(=O)[C@@H](NC(=O)c2cc(Oc3ccc(F)cc3F)ccn2)CCc2cccnc21 [Example 121B, (S)-4-(2,4-difluorophenoxy)-N-(9-methyl-8-oxo-6,7,8,9-tetrahydro-5H-pyrido[2,3-b]azepin-7-yl)picolinamide]",0.1 to 1000 nM
14,"CN1C(=O)[C@@H](NC(=O)[C@H]2C[C@@H]2Cc2ccccc2)COc2ccccc21 (single isomer, unassigned) [Example 50B]",1000 to 10000 nM
15,"Cc1nc2c(s1)CC[C@@H](NC(=O)c1nnc(Cc3ccccc3)[nH]1)C(=O)N2C [Example 38B, (R)-5-benzyl-N-(2,4-dimethyl-5-oxo-5,6,7,8-tetrahydro-4H-thiazolo[4,5-b]azepin-6-yl)-4H-1,2,4-triazole-3-carboxamide]",> 3000 nM
16,"C[C@H]1Oc2cccnc2N(C)C(=O)[C@H]1NC(=O)c1nn(Cc2ccc(C#N)cc2)cc1F [Example 127, 1-(4-Cyanobenzyl)-N-((2R,3S)-2,5-dimethyl-4-oxo-2,3,4,5-tetrahydropyrido[3,2-b][1,4]oxazepin-3-yl)-4-fluoro-1H-pyrazole-3-carboxamide]",0.1 to 1000 nM
17,"N#Cc1cccc(Cn2cc(F)c(C(=O)N[C@H]3C(=O)Nc4c(F)cc(F)cc4[C@H]4C[C@H]43)n2)c1 [Example 170B, 1-(3-cyanobenzyl)-N-((1aR,2R,8bS)-5,7-difluoro-3-oxo-1,1a,2,3,4,8b-hexahydrobenzo[b]cyclopropa[d]azepin-2-yl)-4-fluoro-1H-pyrazole-3-carboxamide]",> 3000 nM
18,"O=C(N[C@@H]1C(=O)Nc2c(F)cc(F)cc2[C@H]2C[C@@H]12)c1nnc(Cc2ccccc2)[nH]1 [Example 176, 5-benzyl-N-((1aR,2S,8bS)-5,7-difluoro-3-oxo-1,1a,2,3,4,8b-hexahydrobenzo[b]cyclopropa[d]azepin-2-yl)-4H-1,2,4-triazole-3-carboxamide]",0.1 to 1000 nM
19,"CN1C(=O)[C@H](NC(=O)c2nnc(Cc3ccccc3)o2)[C@@H]2C[C@@H]2c2cccnc21 [Example 157A, 5-benzyl-N-((1aR,2R,8bS)-4-methyl-3-oxo-1,1a,2,3,4,8b-hexahydrocyclopropa[d]pyrido[2,3-b]azepin-2-yl)-1,3,4-oxadiazole-2-carboxamide]",> 3000 nM
20,"CN1C(=O)[C@@H](NC(=O)C2CC(Cc3ccccc3)C2)COc2ccccc21 (stereo partly drawn) [Example 43, 3-benzyl-N—((S)-5-methyl-4-oxo-2,3,4,5-tetrahydrobenzo[b][1,4]oxazepin-3-yl)cyclobutane-1-carboxamide]",1000 to 10000 nM
21,"CN1C(=O)[C@@H](NC(=O)c2nn(Cc3cnn(C)c3)cc2F)COc2cccnc21 [Example 184, (S)-4-fluoro-1-((1-methyl-1H-pyrazol-4-yl)methyl)-N-(5-methyl-4-oxo-2,3,4,5-tetrahydropyrido[3,2-b][1,4]oxazepin-3-yl)-1H-pyrazole-3-carboxamide]",0.1 to 1000 nM
22,"CN1C(=O)[C@@H](NC(=O)c2cc(CC(F)(F)F)on2)COc2ccccc21 [Example 14, (S)—N-(5-methyl-4-oxo-2,3,4,5-tetrahydrobenzo[b][1,4]oxazepin-3-yl)-5-(2,2,2-trifluoroethyl)isoxazole-3-carboxamide]",0.1 to 1000 nM

# More lines, now with the values ahead:
row,IC50,SMILES
1,0.1 to 1000 nM,"O=C(N[C@H]1COc2cccnc2NC1=O)c1nnc(C2CCc3ccccc32)[nH]1 (single isomer, unassigned) [Example 102B]"
2,1000 to 10000 nM,"O=C(N[C@H]1COc2cccnc2NC1=O)c1nnc(C2CCc3ccccc32)[nH]1 (single isomer, unassigned) [Example 102A]"
3,> 3000 nM,"CN1C(=O)[C@H](NC(=O)c2nnc(C3(c4ccccc4)CC3)o2)CCc2cccnc21 [Example 145B, (R)—N-(9-methyl-8-oxo-6,7,8,9-tetrahydro-5H-pyrido[2,3-b]azepin-7-yl)-5-(1-phenylcyclopropyl)-1,3,4-oxadiazole-2-carboxamide]"
4,> 3000 nM,"O=C(N[C@H]1C(=O)Nc2ncccc2[C@H]2C[C@H]21)c1nnc(Cc2ccccc2)[nH]1 [Example 110A, 5-benzyl-N-((1aR,2R,8bS)-3-oxo-1,1a,2,3,4,8b-hexahydrocyclopropa[d]pyrido[2,3-b]azepin-2-yl)-4H-1,2,4-triazole-3-carboxamide]"
5,1000 to 10000 nM,"Cn1ncc2c1CC[C@H](NC(=O)c1nnc(Cc3ccccc3)[nH]1)C(=O)N2 [Example 118B, (S)-5-benzyl-N-(1-methyl-5-oxo-1,4,5,6,7,8-hexahydropyrazolo[4,3-b]azepin-6-yl)-4H-1,2,4-triazole-3-carboxamide]"
6,1000 to 10000 nM,"CN1C(=O)[C@H](NC(=O)c2nnc(Cc3ccccc3)o2)CCc2cccnc21 [Example 148B, (R)-5-benzyl-N-(9-methyl-8-oxo-6,7,8,9-tetrahydro-5H-pyrido[2,3-b]azepin-7-yl)-1,3,4-oxadiazole-2-carboxamide]"
7,> 3000 nM,"CN1C(=O)[C@H](NC(=O)c2nnc(Cc3ccccc3)[nH]2)CC2(CC2)c2cccnc21 [Example 125A, (R)-5-benzyl-N-(9′-methyl-8′-oxo-6′,7′,8′,9′-tetrahydrospiro[cyclopropane-1,5′-pyrido[2,3-b]azepin]-7′-yl)-4H-1,2,4-triazole-3-carboxamide]"
8,0.1 to 1000 nM,"O=C(N[C@H]1COc2cccnc2-n2ccnc21)c1nnc(Cc2ccccc2)[nH]1 [Example 141B, (R)-5-benzyl-N-(6,7-dihydroimidazo[1,2-d]pyrido[3,2-b][1,4]oxazepin-7-yl)-4H-1,2,4-triazole-3-carboxamide]"
9,0.1 to 1000 nM,"Cn1cc2c(n1)CC[C@H](NC(=O)c1nnc(Cc3ccccc3)[nH]1)C(=O)N2 [Example 104B, (S)-5-benzyl-N-(2-methyl-5-oxo-2,4,5,6,7,8-hexahydropyrazolo[4,3-b]azepin-6-yl)-4H-1,2,4-triazole-3-carboxamide]"
10,0.1 to 1000 nM,"CN1C(=O)[C@@H](NC(=O)c2nnc(C3(c4ccccc4)CC3)[nH]2)COc2cccnc21 [Example 106, (S)—N-(5-methyl-4-oxo-2,3,4,5-tetrahydropyrido[3,2-b][1,4]oxazepin-3-yl)-5-(1-phenylcyclopropyl)-4H-1,2,4-triazole-3-carboxamide]"
11,0.1 to 1000 nM,"CN1C(=O)[C@@H](NC(=O)c2nnc(C3(c4ccccc4)CC3)[nH]2)COc2cnccc21 [Example 113, (S)—N-(1-methyl-2-oxo-1,2,3,4-tetrahydropyrido[3,4-b][1,4]oxazepin-3-yl)-5-(1-phenylcyclopropyl)-4H-1,2,4-triazole-3-carboxamide]"
